Patent US10508103B2, “Benzimidazole-linked indole compound acting as novel divalent IAP antagonist” (MEDSHINE DISCOVERY INC., priority 2016, dated 2019)

What was measured:
XIAP-BIR3 Protein = XIAP-BIR3 Protein (Homo sapiens (Human), UniProt P98170); assay: Fluorescence polarization affinity of compounds to XIAP-BIR3; type: binding; settings: XIAP-BIR3 30 nM; 5 nM ARPFAQ-K(5-FAM)-NH2 probe; FP; pH 7.5; read-out: affinity to target protein in vitro, XIAP-BIR3 Protein (IC50)
Protocol: (§1) Biological Assay 1: affinity of compounds to cIAP1-BIR3, cIAP2-BIR3, XIAP-BIR3 • 1) Affinity of compounds listed in table to cIAP1-BIR3, Ciap2-BIR3, XIAP-BIR3 was tested referring to Nikolovska-Colesks, Z. et.Al. (Analytical Biochemistry,2004,232:261-273) to obtain IC50 value. Generally speaking, in 10-dose IC50 mode, IAP antagonists with different concentrations were diluted in series by 3-fold and fluorescence labelled ARPFAQ-K (5-FAM)-NH2 peptide was used as probe to test compounds binding to protein BIR3 domain. • 2) Test condition: cIAP1-BIR3: 20 nM; cIAP2-BIR3: 60 nM; XIAP-BIR3: 30 nM; 5 nM probe in 100 mM tripotassium phosphate, pH 7.5, 0.1 mg/mL BSA, 0.005% Triton X100 and 0.5% DMSO. • 3) Test procedure: compounds were added into protein with different concentrations by using ECHO (LabCyte), and then the mixture was preincubated for 15 min. The probe was added and the final concentration was 5 nM. After incubating for 60 min, FP was tested and mP was calculated. Experiment results were list in table 1.

cIAP2-BIR3 Protein = cIAP2-BIR3 Protein (Homo sapiens (Human), UniProt Q13489); assay: Fluorescence polarization affinity of compounds to cIAP2-BIR3; type: binding; settings: cIAP2-BIR3 60 nM; 5 nM ARPFAQ-K(5-FAM)-NH2 probe; FP; pH 7.5; read-out: affinity to target protein in vitro, cIAP2-BIR3 Protein (IC50)
cIAP2-BIR3 Protein, sequence (Q13489 238-349): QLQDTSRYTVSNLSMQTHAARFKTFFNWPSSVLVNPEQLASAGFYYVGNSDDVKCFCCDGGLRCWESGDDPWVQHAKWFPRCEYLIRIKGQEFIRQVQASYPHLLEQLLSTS
Protocol: as §1

[1] = system: NF-κB Luciferase Reporter Hela cells; assay: TNF-α inducing NF-κB reporter; type: cell-based; settings: Homo sapiens, 6 h, Table 3, 20 ng/mL TNF-α, Bright-Glo luciferase, values given as ranges
Protocol: Biological Assay 2: TNF-α inducing NF-κB reporter
• 1) tested compounds were added into DMSO to give parent liquor (10 mM); • 2) reference compound Birinapant (32 μL, 10 mM) was added into DMSO (128 μL) to give a solution (2 mM); • 3) 0.5 μL reference compound Birinapant (2 mM) and tested compounds (10 mM) were taken by Echo and added into Greiner 96 well black cell culture plate respectively. The initial concentration of the reference compound and tested compound was 10 μM and 50 μM, respectively. Then, the reference compound and tested compounds were diluted at 9 points in series by 5-fold; and every plate was repeated for 3 times. • 4) the reference compound WXFL2012A001 (Birinapant) (final concentration: 10 μM) as HPE and DMSO (final concentration: 0.5%) as ZPE.
• 5) purpose of the three repeated plates: the first plate was used for testing compounds' activity;
the second plate was used for testing cytotoxicity of the compounds; the third plate was used for solution replacement of the first and second plates: mixing inducer TNF-α and medium containing 0.1% FBS, and then being added to the third plate and the resultant mixture was transferred to the first plate where supernatants had been removed.
• 1) removing medium in NF-iBLuciferase Reporter Hela cell culture flask and washing cell once with PBS (10 mL) • 2) adding 0.25% pancreatin (3 mL) to T150 cell culture flask, and placinginto cell incubator (37° C., 5%CO2) and dissociating cell for 3 min, and then medium (10 mL) was added to end dissociation and blowing cells with electric pipette until cells were dispersed into single cell. • 3) Calculating cell density with cell counter Countstar • 4) Adjusting NF-κB Luciferase Reporter Hela density with medium to 2.0×10^5 cells/mL • 5) Adding cells to two Greiner 96 well black cell culture plates containing compounds, (100 μL per well (2.0×10^4 cells/well)), one plate was used for testing compounds' activity, another was used for testing cytotoxicity of the compounds. • 6) Placing cell culture plates into cell incubator (37° C., 5%CO2) and incubatingfor 24 h Second Day TNF-α Inducing • 1) TNF-α (100 μg/mL) was diluted into 20 ng/mL with 0.1% FBS medium and transferredto the third plate with 100 μL per well • 2) Removing medium of the first 96 well black cell culture plate (compound activity testing plate) after 24 h, replacing with fresh medium containing the compound and 20 ng/mL TNF-α in the third plate • 3) Placing cell culture plate into cell incubator (37° C., 5% CO2) and incubatingfor 6 h • 4) after 6 h, compound's activity in the first plate was tested according to Bright-Glo (Promega) manual method, luciferase signal in each well was tested by Envision plate reader • 5) compound's cytotoxicity in the second plate was tested according to ATPlite 1Step (Perkin Elmer) manual method, luciferase signal in each well was tested by Envision plate reader • 6) analyzing with software to obtain EC50 of compound.

cIAP1-BIR3 Protein = cIAP1-BIR3 Protein (Homo sapiens (Human), UniProt Q13490); assay: Fluorescence polarization affinity of compounds to cIAP1-BIR3; type: binding; settings: cIAP1-BIR3 20 nM; 5 nM ARPFAQ-K(5-FAM)-NH2 probe; FP; pH 7.5; read-out: affinity to target protein in vitro, cIAP1-BIR3 Protein (IC50)
cIAP1-BIR3 Protein, sequence (Q13490 253-363): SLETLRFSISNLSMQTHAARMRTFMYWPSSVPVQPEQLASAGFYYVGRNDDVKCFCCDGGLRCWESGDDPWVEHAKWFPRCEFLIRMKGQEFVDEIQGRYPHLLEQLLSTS
Protocol: as §1

XIAP-BIR3 Protein, sequence (P98170 241-356): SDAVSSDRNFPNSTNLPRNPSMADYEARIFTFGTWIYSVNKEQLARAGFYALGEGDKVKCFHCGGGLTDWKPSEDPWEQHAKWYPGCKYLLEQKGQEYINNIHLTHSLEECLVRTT

IC50 (XIAP-BIR3 Protein) [nM] | IC50 (cIAP2-BIR3 Protein) [nM] | EC50 [1] [nM] | IC50 (cIAP1-BIR3 Protein) [nM] | Structure (SMILES)
< 10 | 10 to 100 | 10 to 100 | < 10 | CC[C@H](NC(=O)[C@H](C)NC)C(=O)N1C[C@@H](F)C[C@H]1Cc1c(-c2nc3cc(F)ccc3n2C[C@@H]2CCCN2C(=O)[C@@H](NC(=O)[C@H](C)NC)C(C)C)[nH]c2cc(F)ccc12 [Embodiment 39]
10 to 100 | 10 to 100 | > 100 | 10 to 100 | CC[C@H](NC(=O)[C@H](C)NC)C(=O)N1CC(F)(F)C[C@H]1Cc1c(-c2nc3cc(F)ccc3n2C[C@@H]2CC(F)(F)CN2C(=O)[C@H](CC)NC(=O)[C@H](C)NC)[nH]c2cc(F)ccc12 [Embodiment 43]
< 10 | 10 to 100 | > 100 | < 10 | CN[C@@H](C)C(=O)N[C@H](C(=O)N1CC(F)(F)C[C@H]1Cc1c(-c2nc3cc(F)ccc3n2C[C@@H]2CC(F)(F)CN2C(=O)[C@@H](NC(=O)[C@H](C)NC)C2CC2)[nH]c2cc(F)ccc12)C1CC1 [Embodiment 44]
10 to 100 | 10 to 100 | 10 to 100 | < 10 | CC[C@H](NC(=O)[C@H](C)NC)C(=O)N1CC(F)(F)C[C@H]1Cc1c(-c2nc3cc(F)ccc3n2C[C@@H]2CC(F)(F)CN2C(=O)[C@@H](NC(=O)[C@H](C)NC)C(C)C)[nH]c2cc(F)ccc12 [Embodiment 46]

The remaining lines, values behind:

Structure (SMILES) | IC50 (XIAP-BIR3 Protein) [nM] | IC50 (cIAP2-BIR3 Protein) [nM] | EC50 [1] [nM] | IC50 (cIAP1-BIR3 Protein) [nM]
CC[C@H](NC(=O)[C@H](C)NC)C(=O)N1C[C@@H](F)C[C@H]1Cc1c(-c2nc3cc(F)ccc3n2C[C@@H]2C[C@H](F)CN2C(=O)[C@@H](NC(=O)[C@H](C)NC)C2CC2)[nH]c2cc(F)ccc12 [Embodiment 31] | 10 to 100 | 10 to 100 | 10 to 100 | < 10
CCC[C@H](NC(=O)[C@H](C)NC)C(=O)N1C[C@@H](F)C[C@H]1Cc1c(-c2nc3cc(F)ccc3n2C[C@@H]2C[C@H](F)CN2C(=O)[C@@H](NC(=O)[C@H](C)NC)C(C)C)[nH]c2cc(F)ccc12 [Embodiment 32] | 10 to 100 | 10 to 100 | < 10 | < 10
CCC[C@H](NC(=O)[C@H](C)NC)C(=O)N1C[C@@H](F)C[C@H]1Cn1c(-c2[nH]c3cc(F)ccc3c2C[C@@H]2C[C@H](F)CN2C(=O)[C@@H](NC(=O)[C@H](C)NC)C2CCCCC2)nc2cc(F)ccc21 [Embodiment 36] | 10 to 100 | 10 to 100 | < 10 | < 10
CC[C@H](NC(=O)[C@H](C)NC)C(=O)N1CCC[C@H]1Cc1c(-c2nc3cc(F)ccc3n2C[C@@H]2C[C@H](F)CN2C(=O)[C@@H](NC(=O)[C@H](C)NC)C(C)(C)C)[nH]c2cc(F)ccc12 [Embodiment 38] | < 10 | 10 to 100 | < 10 | < 10
CC[C@H](NC(=O)[C@H](C)NC)C(=O)N1C[C@@H](F)C[C@H]1Cc1c(-c2nc3cc(F)ccc3n2C[C@@H]2CCCN2C(=O)[C@@H](NC(=O)[C@H](C)NC)C(C)(C)C)[nH]c2cc(F)ccc12 [Embodiment 40] | 10 to 100 | 10 to 100 | < 10 | < 10
CC[C@H](NC(=O)[C@H](C)NC)C(=O)N1CCC[C@H]1Cn1c(-c2[nH]c3cc(F)ccc3c2C[C@@H]2C[C@H](F)CN2C(=O)[C@@H](NC(=O)[C@H](C)NC)C(C)(C)C)nc2cc(F)ccc21 [Embodiment 42] | < 10 | 10 to 100 | 10 to 100 | < 10
